Assay results taken from patent publication US20090285916A1, “METHODS OF DIAGNOSIS AND TREATMENT OF EQUINE LAMINITIS AND CUSHING'S SYNDROME” (Pegasus Equine Diagnostics Limited, priority 2006, published 2009).

Experiments:
[1] = tested on: PPID (pituitary pars intermedia dysfunction); test: Anecdotal evidence on melatonin and pergolide dosing in PPID horses and ponies; assay type: in vivo
Text: From a chronological perspective obviously both groups of horses were aged (>16 years), but from the viewpoint of the Neuroendocrine Theory of Aging (21) the PPID group might be considered to be of greater “biological age” than the control group. […] There was also a pronounced dopamine rhythm phase shift and amplitude decrease for the PPID group in June and September, in addition to evidence of serotonin acrophase amplitudes being increased in September. These observations are consistent with the reduction in dopamine and concomitant increase in serotonin implied in the treatment of PPID horses with dopamine agonists and serotonin antagonists. […] This may also apply to the subsequent increases in follicle density and length plus coarsening of the hair structure that have been observed. It is worth noting that the significant differences between the groups in our results appear to pre-date the traditionally acknowledged seasons (spring, autumn) of increased laminitis susceptibility by approximately three months (as well as being present during such seasons); this is perhaps not when most practitioners would expect them. […] The situation may, of course, be exacerbated by other trigger factors for laminitis becoming part of the external conditions to which the horse is exposed, e.g. access to a flush of spring grass. Additionally, it might be expected that dopamine and serotonin would be the dominant factors implicated in investigating PPID, as defined by past treatment regimes. However, when the results of the present study were examined as a whole, taking into account assay sensitivity, the neurohormone rhythms that were discovered and neurohormone rhythms that exist in the literature for healthy horses (14, 40, 41), the signals felt to be most reliable were dopamine plasma concentrations and serotonin:melatonin and dopamine:melatonin plasma concentration ratios, with serotonin:dopamine only represented for two times in June (as shown in FIG. 6). […]

[2] = tested on: equine digital arteries; conditions: reference 38; cited from earlier work

COc1ccc2[nH]cc(CCNC(C)=O)c2c1 [melatonin]
shedding of the winter coat ([1]; low dosage 1.5 mg, in the evening each day, all year round): facilitates shedding of the winter coat at the expected time

NCCc1c[nH]c2ccc(O)cc12 [5-HT, 5-hydroxytryptamine]
sensitivity of digital arteries to vasoconstrictive actions compared with other peripheral blood vessels [2]: 30-40 fold

CCCN1C[C@H](CSC)C[C@@H]2c3cccc4[nH]cc(c34)C[C@H]21 [pergolide]
effect of changing time of day of administration, changing the dosage (by as little as 0.05 mg per day) and under or over dosing [1]: increase the probability that laminitis will occur | maximum dosage for ponies ([1]; ponies): 0.75 mg
